Results reported in patent USRE35053E, “Amines useful in producing pharmaceutically active CNS compounds” (The Upjohn Company, priority 1992, dated 1995).
Where a name gives a salt, the structure may show the parent alone.

Key:
[1] = test system: arachidonic acid; test: Arachidonic Acid Antagonism Assay (AAAA); type: in vivo, mouse (Charles River male CF-1); details: mice; for arachidonic acid antagonism (elevation of LD50 of arachidonic acid): IV, 15 min before sodium arachidonate, outside 95% confidence interval of control LD50
Experimental: While not necessary to determine arachidonic acid antagonism, the above assay has been modified as follows: Charles River male CF-1 mice weighing […] are treated IV with the test compound dissolved in 1.0% Tween-80 and 0.1% hydrochloric acid in distilled water. 0 2 ml total volume. Fifteen minutes later sodium arachidonate (90% pure) in physiological (normal) […] is injected into the tail vein. The LD50 is measured using the Spearman-Karber method with a log dose interval of 0.05 (N-6). Compounds which elevate the LD50 outside of the 95% confidence interval of the control LD50 are considered to be "active".

[2] = test system: interleukin-1; test: inhibition of interleukin-1 induced T cell proliferation assay; type: cell-based; details: active = >30% at 10^-6 M
From the text: The inhibition of interleukin-1 induced T cell proliferation assay, Proc. Nat. […] Since people with arthritis make excess interleukin 1, compounds which inhibit the activity of interleukin 1 are useful in the treatment of arthritis. According to this procedure compounds which inhibit the activity of interleukin 1 greater that 30% at 10^-6 M are considered to be "active".

[3] = test system: angiogenesis; test: fertile egg or chick embryo assay of Folkman (inhibition of angiogenesis / tumor growth); type: in vivo; details: chick embryo; for inhibition of angiogenesis: 50 μg/10 μl with heparin, avascular zone 4 mm or greater
Experimental: According to this procedure compounds which are considered to be "active" (i.e, antiangiogenic) give an avascular zone of 4 mm or greater in some embryos when tested at 50 μg/10 μl in the presence of 50 μg/10 μ of heparin.

[4] = test system: MDA formation in rat brain synaptosomes; test: Malonyldialdehyde (MDA) Formation Assay (lipid peroxidation); type: biochemical; details: active = 50% inhibition or more at 200 μM or less
From the text: The MDA assays of Buege and Aust, Methods in Enzymology, Fleisher and Packer Editors. Academic Press, 1978, New York, Vol LII, p 302-310 and Kohn and Liversedge, J. Pharmacol. Exp. Ther. 82. […] Since iipid peroxidation is involved in the pathophysiology of central nervous system trauma, compounds which inhibit MDA formation are useful in treating the conditions listed below.
While not necessary to determine MDA formation, the above assays have been modified as follows: rat brain synaptosomes are prepared as described in the Example about the conjugated diene assay, except that the final wash of the synaptosomes and final suspension are in physiological (normal) saline in which the pH has been adjusted to 7 0. The synaptosomes are incubated for 10 min at 37° in physiological (normal) saline pH 7.0 (total volume=100 ul) containing; 10 ul synaptosomal suspension. 10% DMSO plus or minus drug. 150 uM Fe^+++ and 50 uM Fe^++. The incubation is started by the rapid addition of iron to the otherwise complete reaction. The iron solutions are prepared fresh as ferric chloride and ferrous ammonium sulfate in argon-purged water. Following the 10 min incubation, the reaction is stopped by the addition of 500 ul ice-cold 12% trichloroacetic acid prepared in 0.5 N hydrochloric acid. Water (300 ul) is then added along with 100 ul of freshly prepared thiobarbituric acid (3.3% in 0.5N sodium hydroxide) and 10 ul of 5mM desferrioxamine. The sample is then heated in a boiling water bath for 20 minutes. The samples are cooled and centrifuged for 15 minutes at 1500 xg and the absorbance of the supernatant fraction is read at 532 nm. The % inhibition of MDA formation is calculated by dividing the absorbance of sample containing drug by the absorbance of samples incubated without drug. Reaction blanks are samples incubated in the absence of iron A compound that inhibits MDA formation by 50% or more at a concentration of 200μM or less is considered "active".

Question: What does the source list for `C[C@H]1C[C@@H]2[C@H]([C@@H](O)C[C@@]3(C)[C@H]2CC[C@]3(O)C(=O)CN2CCN(c3ccccn3)CC2)[C@@]2(C)C=CC(=O)C=C12` [Example 21, 11β,17α-dihydroxy-6α-methyl-21-[4-(2-pyridinyl)-1-piperazinyl]pregna-1,4-diene-3,20-dione]?
Answer: arachidonic acid antagonism (elevation of LD50 of arachidonic acid) [1]: demonstrate arachidonic acid antagonism; inhibition of interleukin 1 [2]: demonstrate inhibition of interleukin 1; % of Embryos with 4 mm or Greater A vascular Zone ([3]; 50 μg/10 μl in the presence of heparin): 91%; inhibition of angiogenesis [3]: demonstrate inhibition of angiogenesis

Question: How did the “inhibition of interleukin 1” value [2] turn out when `C[C@]12CC(=O)[C@H]3[C@@H](CCC4=CC(=O)CC[C@@]43C)[C@@H]1CC[C@@H]2C(=O)CN1CCN(c2cc(N3CCCC3)nc(N3CCCC3)n2)CC1.Cl.Cl` [Example 94, 21-[4-[2,6-bis(1-pyrrolidinyl)-4-pyrimidinyl]-1-piperazinyl]-pregn-4-ene-3,11,20-trione dihydrochloride] was run?
Answer: Its value is “demonstrate inhibition of interleukin 1”.

Question: With `CN1CCN(CC(=O)[C@@]2(O)CC[C@H]3[C@@H]4CCC5=CC(=O)CC[C@]5(C)C4=CC[C@@]32C)CC1` [Example 101, 17α-hydroxy-21-(4-methyl-1-piperazinyl)-pregna-4,9(11)-diene-3,20-dione] as the compound, how does the “inhibition of interleukin 1” value [2] read?
Answer: Its value is “demonstrate inhibition of interleukin 1”.

Question: For `CN(CCN(C)c1ccccn1)CC(=O)[C@@]1(O)CC[C@H]2[C@@H]3CCC4=CC(=O)CC[C@]4(C)C3=CC[C@@]21C.Cl.Cl` [Example 24, 17α-hydroxy-21-[methyl[2-(methyl-2-pyridinylamino)ethyl]amino]pregna-4,9(11)-diene-3,20-dione dihydrochloride], which “arachidonic acid antagonism (elevation of LD50 of arachidonic acid)” value [1] is on record?
Answer: The value was “demonstrate arachidonic acid antagonism”.

Question: What about the inhibition of angiogenesis [3] of the same compound?
Answer: Its inhibition of angiogenesis is “demonstrate inhibition of angiogenesis”.

Question: Which “inhibition of interleukin 1” value [2] does the source give for `CCN(CC)c1ccc(N(C)C)c(N2CCN(CC(=O)[C@@]3(O)CC[C@H]4[C@@H]5CCC6=CC(=O)CC[C@]6(C)C5=CC[C@@]43C)CC2)n1.Cl.Cl` [Example 96, 21-[4-[6-(diethylamino)-3-(dimethylamino)-2-pyridinyl]-1-piperazinyl]-17α-hydroxypregna-4,9(11)-diene-3,20-dione dihydrochloride] here?
Answer: The value was “demonstrate inhibition of interleukin 1”.

Question: With `C[C@H]1C[C@H]2[C@@H]3C[C@H](F)C4=CC(=O)CC[C@]4(C)C3=CC[C@]2(C)[C@@]1(O)C(=O)CN1CCN(c2cc(N3CCCC3)nc(N3CCCC3)n2)CC1.Cl.Cl` [Example 118, 6α-Fluoro-17α-hydroxy-16β-methyl-21-[4-[2,6-bis(1-pyrrolidinyl)-4-pyrimidinyl]-1-piperazinyl]-pregna-4,9(11)-diene-3,20-dione dihydrochloride] as the compound, how does the “inhibition of MDA formation” value [4] read?
Answer: Its value is “demonstrate such activity”.

Question: Which “inhibition of MDA formation” value [4] does the source give for `C[C@]12CC[C@H]3[C@@H](CCC4=CC(=O)CC[C@@]43C)[C@@H]1CC[C@@H]2CCN1CCN(c2cc(N3CCCC3)nc(N3CCCC3)n2)CC1.Cl` [Example 107, 21-[4-(2,6-Bis(1-pyrrolidinyl)-4-pyrimidinyl)-1-piperazinyl]pregna-4-ene-3-one hydrochloride] here?
Answer: The value was “demonstrate such activity”.

Question: `COc1ccc2c(c1)CC[C@@H]1[C@@H]2CC[C@@]2(C)[C@H]1CC[C@]2(O)C(=O)CN1CCN(c2cc(N3CCCC3)nc(N3CCCC3)n2)CC1` [Example 125, 3,17α-Dihydroxy-21-[4-[2,6-bis(1-pyrrolidinyl)-4-pyrimidinyl]-1-piperazinyl]-19-norpregna-1,3,5(10)-trien-20-one 3-methyl ether (E)-2-butenedioate 1:1 salt] was tested. Which “inhibition of MDA formation” value [4] did it give?
Answer: Its value is “demonstrate such activity”.

Question: What does the source list for `C[C@]12CC[C@H]3[C@@H](CCC4=CC(=O)C=C[C@@]43C)[C@@H]1CC[C@@H]2C(=O)CN1CCN(c2cc(N3CCCC3)nc(N3CCCC3)n2)CC1.Cl.Cl` [Example 97, 21-[4-[2,6-di-(1-pyrrolidinyl)-4-pyrimidinyl]-1-piperazinyl]-pregna-1,4-diene-3,20-dione dihydrochloride]?
Answer: inhibition of interleukin 1 [2]: demonstrate inhibition of interleukin 1; inhibition of angiogenesis [3]: demonstrate inhibition of angiogenesis

Question: `C[C@@H]1C[C@H]2[C@@H]3CCC4=CC(=O)C=C[C@]4(C)[C@H]3CC[C@]2(C)[C@H]1C(=O)CN1CCN(c2cc(N3CCCC3)nc(N3CCCC3)n2)CC1.Cl.Cl` [Example 121, 16α-Methyl-21-[4-[2,6-bis(1-pyrrolidinyl)-4-pyrimidinyl]-1-piperazinyl]pregna-1,4-diene-3,20-dione dihydrochloride] was tested. Which “inhibition of MDA formation” value [4] did it give?
Answer: The value was “demonstrate such activity”.

Question: Which results are given for `COc1ccc(CCN(CC(=O)[C@@]2(O)CC[C@H]3[C@@H]4CCC5=CC(=O)CC[C@]5(C)C4=CC[C@@]32C)Cc2cc(OC)c(OC)c(OC)c2)cc1OC` [Example 37, 17α-hydroxy-21-[[2-(3,4-dimethoxyphenyl)ethyl]-[3,4,5-trimethoxyphenyl)methyl]amino]pregna-4,9(11)diene-3,20-dione hydrochloride]?
Answer: inhibition of interleukin 1 [2]: demonstrate inhibition of interleukin 1; inhibition of angiogenesis [3]: demonstrate inhibition of angiogenesis

Question: How did the “inhibition of MDA formation” value [4] turn out when `C[C@@]12C(=CC(=O)C[C@@H]1C#N)CC[C@@H]1C2=CC[C@]2(C)[C@@H](CCN3CCN(c4cc(N5CCCC5)nc(N5CCCC5)n4)CC3)CC[C@@H]12.Cl.Cl.Cl.O` [Example 110, 21-[4-(2,6-Bis(1-pyrrolidinyl)-4-pyrimidinyl)-1-piperazinyl]-1α-cyanopregna-4,9(11)-diene-3-one-trihydrochloride, hydrate] was run?
Answer: The value was “demonstrate such activity”.

Question: Which results are given for `C[C@]12CCC(=O)C=C1CC[C@@H]1C2=CC[C@@]2(C)[C@H]1CC[C@]2(O)C(=O)CN1CCN(c2cccc(N3CCCC3)n2)CC1` [Example 62, 17α-hydroxy-21-[4-[6-(1-pyrrolidinyl)-2-pyridinyl]-1-piperazinyl]pregna-4,9(11)-diene-3,20-dione(E)-2-butenedioate (1:1) salt]?
Answer: % of Control LD50 ([1]; 100 mg/kg, LD50 of sodium arachidonate): 138%; arachidonic acid antagonism (elevation of LD50 of arachidonic acid) [1]: demonstrate arachidonic acid antagonism; inhibition of MDA formation [4]: demonstrate such activity

Question: For `C[C@]12CCC(=O)C=C1CC[C@@H]1C2=CC[C@]2(C)[C@@H](CCN3CCN(c4cc(N5CCCC5)nc(N5CCCC5)n4)CC3)CC[C@@H]12.Cl` [Example 104, 21-[4-(2,6-Bis(1-pyrrolidinyl)-4-pyrimidinyl)-1-piperazinyl]pregna-4,9(11)-dien-3-one hydrochloride], which “inhibition of MDA formation” value [4] is on record?
Answer: The value was “demonstrate such activity”.

Question: What about the inhibition of angiogenesis [3] of the same compound?
Answer: Its inhibition of angiogenesis is “demonstrate inhibition of angiogenesis”.

Question: Which “inhibition of MDA formation” value [4] does the source give for `C[C@]12CC[C@@H]3c4ccc(O)cc4CC[C@H]3[C@@H]1CC[C@]2(O)C(=O)CN1CCN(c2cc(N3CCCC3)nc(N3CCCC3)n2)CC1` [Example 129, 3,17α-Dihydroxy-21-[4-[2,6-bis(1-pyrrolidinyl)-4-pyrimidinyl]-1-piperazinyl]-19-norpregna-1,3,5(10)-trien-20-one(E)-2-butenedioate 1:1 salt] here?
Answer: The value was “demonstrate such activity”.
